Results from patent publication EP3290412A1, “HIV-1 NUCLEOCAPSID INHIBITORS” (Università degli Studi di Siena, priority 2016, dated 2018).

Experiments:
Format in all cases: cell-based
[1] = test system: HIV-1 reference strain NL4-3; experiment: MonoCycle assay (TZM-bl cells)
Procedure, shortened: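 TZM-bl cells (20,000/well) were infected with NL4-3 in the presence of five-fold serial inhibitor dilutions. After 48 h, cells were lysed and luciferase luminescence (RLU) was counted. IC50 was derived from the RLU data.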

[2] = test system: Peripheral blood mononuclear cells (PBMC); settings: human, 7 days
Procedure, shortened: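 Healthy-donor PBMC stimulated 2 days with 5 µg/mL PHA, then seeded at 1x10^5 cells/well in medium with 20 IU/mL IL-2 and exposed to compound for 7 days. Viability measured by MTS (4 h, OD 490 nm). TD50 interpolated from dose versus percent mortality relative to untreated cells.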

[3] = test system: HIV-1 reference strain NL4-3; experiment: BiCycle assay (MT-2 then TZM-bl cells)
Procedure, shortened: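 MT-2 cells were infected with NL4-3 in the presence of five-fold compound dilutions. After 72 h, the supernatant was passed to TZM-bl cells. Two days later, luciferase luminescence was read and IC50 calculated, giving a readout that spans the whole replication cycle.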

[4] = Human immunodeficiency virus 1, NL43, TZM-bl, 48 h, read-out: Mono Cycle IC50 nM
[5] = Human immunodeficiency virus 1, NL43, TZM-bl, read-out: BiCycle IC50 nM
[6] = Human immunodeficiency virus 1, NL43, TZM-bl cells, NL4-3, 48 hours, read-out: Mono Cycle IC50
[7] = Human immunodeficiency virus 1, NL43, MT-2 cells 72 hours then TZM-bl cells two days, NL4-3, read-out: BiCycle IC50

Structure (SMILES)	IC50 [1, 4] [nM]	Proliferation assay PBMC TD50 [2] [nM]	IC50 [3, 5] [nM]	IC50 [1, 6] [nM]	IC50 [3, 7] [nM]
C[C@@H](NC(=O)c1nc(-c2cccc(Cl)n2)nc(O)c1O)C1CCCCC1 [Compound 34, (R)-2-(6-chloropyridin-2-yl)-N-(1-cyclohexylethyl)-5,6-dihydroxypyrimidine-4-carboxamide]	14500	5880	665		
C[C@@H](NC(=O)c1nc(-c2cc(OCc3ccccc3)ccn2)nc(O)c1O)C1CCCCC1 [Compound 35, (R)-2-(4-(benzyloxy)pyridin-2-yl)-N-(1-cyclohexylethyl)-5,6-dihydroxypyrimidine-4-carboxamide]		670		> 50000	530
C[C@@H](NC(=O)c1nc(-c2ccc(C(F)(F)F)cn2)nc(O)c1O)C1CCCCC1 [Compound 36, (R)-N-(1-cyclohexylethyl)-5,6-dihydroxy-2-(5-(trifluoromethyl)pyridin-2-yl)pyrimidine-4-carboxamide]	45400	465	132		
COc1cccc(-c2nc(O)c(O)c(C(=O)N[C@H](C)C3CCCCC3)n2)n1 [Compound 37, (R)-N-(1-cyclohexylethyl)-5,6-dihydroxy-2-(6-methoxypyridin-2-yl)pyrimidine-4-carboxamide]	6910	1500	332		
C[C@H](NC(=O)c1nc(-c2ccccn2)nc(O)c1O)C1CCCCC1 [Compound 38, (S)-N-(1-cyclohexylethyl)-5,6-dihydroxy-2-(pyridin-2-yl)pyrimidine-4-carboxamide]	11200	2450	154		
Cc1cccnc1-c1nc(O)c(O)c(C(=O)N[C@@H](C)C2CCCCC2)n1 [Compound 39, (S)-N-(1-cyclohexylethyl)-5,6-dihydroxy-2-(3-methylpyridin-2-yl)pyrimidine-4-carboxamide]	> 50000	2300	76.5		
C[C@@H](NC(=O)c1nc(-c2cccc(C(F)(F)F)n2)nc(O)c1O)C1CCCCC1 [Compound 44, (R)-N-(1-cyclohexylethyl)-5,6-dihydroxy-2-(6-(trifluoromethyl)pyridin-2-yl)pyrimidine-4-carboxamide]		21550		> 50000	936
C[C@@H](NC(=O)c1nc(-c2cccc(N)n2)nc(O)c1O)C1CCCCC1 [Compound 45, (R)-2-(6-aminopyridin-2-yl)-N-(1-cyclohexylethyl)-5,6-dihydroxypyrimidine-4-carboxamide]	> 50000	3360	1390		
O=C(NCC1CCC1)c1nc(-c2cc3ccccc3cn2)nc(O)c1O [Compound 47, N-(cyclobutylmethyl)-5,6-dihydroxy-2-(isoquinolin-3-yl)pyrimidine-4-carboxamide]	8930	4900	870		
C[C@@H](NC(=O)c1nc(-c2cc(N)ccn2)nc(O)c1O)C1CCCCC1 [Compound 48, (R)-2-(4-aminopyridin-2-yl)-N-(1-cyclohexylethyl)-5,6-dihydroxypyrimidine-4-carboxamide]	9870	2600	1340		
C[C@@H](NC(=O)c1nc(-c2ccc(Cl)cn2)nc(O)c1O)C1CCCCC1 [Compound 49, (R)-2-(5-chloropyridin-2-yl)-N-(1-cyclohexylethyl)-5,6-dihydroxypyrimidine-4-carboxamide]	10900	3400	352		
C[C@@H](NC(=O)c1nc(-c2ccc(CNCc3ccccc3)cn2)nc(O)c1O)C1CCCCC1 [Compound 53, (R)-2-(5-((benzylamino)methyl)pyridin-2-yl)-N-(1-cyclohexylethyl)-5,6-dihydroxypyrimidine-4-carboxamide]	38100	790	530		
CC1CCCCC1NC(=O)c1nc(-c2ccccn2)nc(O)c1O (stereo not drawn) [Compound 59, 5,6-dihydroxy-N-(2-methylcyclohexyl)-2-(pyridin-2-yl)pyrimidine-4-carboxamide]	> 50000	2180	408		
CCNCc1ccc(-c2nc(O)c(O)c(C(=O)N[C@H](C)C3CCCCC3)n2)nc1 [Compound 60, (R)-N-(1-cyclohexylethyl)-2-(5-((ethylamino)methyl)pyridin-2-yl)-5,6-dihydroxypyrimidine-4-carboxamide]	> 50000	1600	694		
C[C@@H](NC(=O)c1nc(-c2ccc(NC(=O)OC(C)(C)C)cn2)nc(O)c1O)C1CCCCC1 [Compound 61, tert-butyl (R)-(6-(4-((1-cyclohexylethyl)carbamoyl)-5,6-dihydroxypyrimidin-2-yl)pyridin-3-yl)carbamate]	7180	2400	210		
CC(=O)Nc1ccc(-c2nc(O)c(O)c(C(=O)N[C@H](C)C3CCCCC3)n2)nc1 [Compound 62, (R)-2-(5-acetamidopyridin-2-yl)-N-(1-cyclohexylethyl)-5,6-dihydroxypyrimidine-4-carboxamide]	> 50000	1870	252		
CC(C)(CNC(=O)c1nc(-c2ccccn2)nc(O)c1O)C1CCCC1 [Compound 63, N-(2-cyclopentyl-2-methylpropyl)-5,6-dihydroxy-2-(pyridin-2-yl)pyrimidine-4-carboxamide]	11800	2100	125		
C[C@H](CC1CCCCC1)NC(=O)c1nc(-c2ccccn2)nc(O)c1O [Compound 64, (R)-N-(1-cyclohexylpropan-2-yl)-5,6-dihydroxy-2-(pyridin-2-yl)pyrimidine-4-carboxamide]	23700	2500	210		
CC(NC(=O)c1nc(-c2ccccn2)nc(O)c1O)C1CCCC1 (stereo not drawn) [Compound 65, N-(1-cyclopentylethyl)-5,6-dihydroxy-2-(pyridin-2-yl)pyrimidine-4-carboxamide]	> 50000	3100	330		
COc1cc(-c2nc(O)c(O)c(C(=O)N[C@H](C)C3CCCCC3)n2)nc2ccccc12 [Compound 68, N-[(1R)-1-cyclohexylethyl]-2-(4-methoxyquinolin-2-yl)-5,6-bis(oxidanyl)pyrimidine-4-carboxamide]		2660		44300	240
COc1ccnc(-c2nc(O)c(O)c(C(=O)N[C@@H](C)C3CCCCC3)n2)c1 [Compound 69, N-[(1S)-1-cyclohexylethyl]-2-(4-methoxypyridin-2-yl)-5,6-bis(oxidanyl)pyrimidine-4-carboxamide]	> 50000	7110	357		
C[C@@H](NC(=O)c1nc(-c2cc(N3CCN(C)CC3)ccn2)nc(O)c1O)C1CCCCC1 [Compound 76, (R)-N-(1-cyclohexylethyl)-5,6-dihydroxy-2-(4-(4-methylpiperazin-1-yl)pyridin-2-yl)pyrimidine-4-carboxamide]	18300	2500	565		
